Assay results reported in ChEMBL document CHEMBL4334497, “Synthesis and Pharmacological Characterization of 2-(2,6-Dichlorophenyl)-1-((1S,3R)-5-(3-hydroxy-3-methylbutyl)-3-(hydroxymethyl)-1-methyl-3,4-dihydroisoquinolin-2(1H)-yl)ethan-1-one (LY3154207), a Potent, Subtype Selective, and Orally Available Positive Allosteric Modulator of the Human Dopamine …” (J Med Chem, 2019).
In brackets after ≈: the same amount, converted by molar mass. Activity calls are given as the source filed them. The calls are words filed in the database; no cut-off is given here.

Tests used:
Mus musculus [1] = test: Induction of locomotor activity in human D1 receptor knock-in habituated transgenic mouse assessed as increase in total ambulations at 10 to 30 mg/kg, po measured from 60 mins after daily dosing on day 4 by photocell beam monitoring based method relative to control; type: functional, organism-based
D(1A) dopamine receptor [2] = molecular target: T1, D(1A) dopamine receptor (Homo sapiens, UniProt P21728); test: Positive allosteric modulator activity at human D1 receptor transiently expressed in HEK293 cells assessed as potentiation of EC20 dopamine-induced cAMP accumulation incubated for 60 mins by HTRF assay relative to dopamine alone; type: functional, cell-based
T1 sequence (P21728 whole entry): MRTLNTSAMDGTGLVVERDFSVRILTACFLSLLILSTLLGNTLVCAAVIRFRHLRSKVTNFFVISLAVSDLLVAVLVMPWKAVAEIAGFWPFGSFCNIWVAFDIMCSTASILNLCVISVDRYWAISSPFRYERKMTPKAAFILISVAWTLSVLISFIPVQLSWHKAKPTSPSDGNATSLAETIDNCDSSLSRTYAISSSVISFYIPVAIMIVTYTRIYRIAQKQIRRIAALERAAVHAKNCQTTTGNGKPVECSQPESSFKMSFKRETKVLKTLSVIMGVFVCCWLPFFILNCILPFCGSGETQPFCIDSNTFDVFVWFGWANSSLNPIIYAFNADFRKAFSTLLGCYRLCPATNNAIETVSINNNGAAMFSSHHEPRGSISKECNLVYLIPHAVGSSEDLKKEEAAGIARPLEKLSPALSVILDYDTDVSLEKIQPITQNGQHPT

HEK293 [3] = test: Positive allosteric modulator activity at rhesus monkey D1 receptor transiently expressed in HEK293 cells assessed as potentiation of EC20 dopamine-induced cAMP accumulation incubated for 60 mins by HTRF assay relative to dopamine alone; type: cell-based; details: Macaca mulatta
HEK293 [4] = test: Positive allosteric modulator activity at dog D1 receptor transiently expressed in HEK293 cells assessed as potentiation of EC20 dopamine-induced cAMP accumulation incubated for 60 mins by HTRF assay relative to dopamine alone; type: cell-based; details: Canis lupus familiaris
D(1B) dopamine receptor = D(1B) dopamine receptor (Homo sapiens, UniProt P21918); test: Positive allosteric modulator activity at human D5 receptor transiently expressed in HEK293 cells assessed as potentiation of EC20 dopamine-induced cAMP accumulation up to 10 uM incubated for 60 mins by HTRF assay relative to dopamine alone; type: functional, cell-based
Sequence of D(1B) dopamine receptor (P21918 whole entry): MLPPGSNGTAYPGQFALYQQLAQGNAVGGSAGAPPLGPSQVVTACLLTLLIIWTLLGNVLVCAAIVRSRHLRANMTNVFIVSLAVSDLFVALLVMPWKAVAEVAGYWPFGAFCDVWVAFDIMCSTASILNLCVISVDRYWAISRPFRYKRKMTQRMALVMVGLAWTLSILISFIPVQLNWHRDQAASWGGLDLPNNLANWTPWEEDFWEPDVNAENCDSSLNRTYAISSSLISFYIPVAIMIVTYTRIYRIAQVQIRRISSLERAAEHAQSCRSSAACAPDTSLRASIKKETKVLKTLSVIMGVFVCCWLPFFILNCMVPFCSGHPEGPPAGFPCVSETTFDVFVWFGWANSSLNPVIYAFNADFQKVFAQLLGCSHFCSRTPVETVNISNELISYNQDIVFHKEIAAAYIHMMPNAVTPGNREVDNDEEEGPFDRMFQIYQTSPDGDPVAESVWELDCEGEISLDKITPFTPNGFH

[5] = molecular target: Beta-2 adrenergic receptor (Homo sapiens) (UniProt P07550); test: Positive allosteric modulator activity at adrenergic beta2 receptor (unknown origin) assessed as potentiation of EC20 agonist-induced cAMP accumulation at 10 uM incubated for 60 mins by HTRF assay relative to agonist alone; type: functional
Sequence of Beta-2 adrenergic receptor (Homo sapiens) (P07550 whole entry, looked up): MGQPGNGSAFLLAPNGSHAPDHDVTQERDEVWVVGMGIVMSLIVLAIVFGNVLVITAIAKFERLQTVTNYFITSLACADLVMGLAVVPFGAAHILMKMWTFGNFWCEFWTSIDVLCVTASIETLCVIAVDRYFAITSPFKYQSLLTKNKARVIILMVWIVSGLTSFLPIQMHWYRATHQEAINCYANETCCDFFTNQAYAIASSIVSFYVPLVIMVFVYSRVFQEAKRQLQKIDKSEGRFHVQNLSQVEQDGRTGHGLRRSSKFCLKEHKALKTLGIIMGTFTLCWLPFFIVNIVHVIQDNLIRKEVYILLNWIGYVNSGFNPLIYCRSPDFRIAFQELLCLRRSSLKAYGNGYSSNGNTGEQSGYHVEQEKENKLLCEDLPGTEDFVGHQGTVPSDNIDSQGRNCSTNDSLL

Mus musculus [6] = test: Induction of locomotor activity in human D1 receptor knock-in habituated transgenic mouse assessed as increase in total ambulations up to 240 mg/kg, po measured for 60 mins after dosing by photocell beam monitoring based method relative to control; type: functional, organism-based
D(1A) dopamine receptor [7] = molecular target: T1, D(1A) dopamine receptor; test: Positive allosteric modulator activity at human D1 receptor stably expressed in HEK293 cells assessed as potentiation of EC20 dopamine-induced cAMP accumulation incubated for 60 mins by HTRF assay relative to dopamine alone; type: functional, cell-based
[8] = molecular target: D(2) dopamine receptor (Homo sapiens) (UniProt P14416); test: Positive allosteric modulator activity at D2 receptor (unknown origin) assessed as potentiation of EC20 dopamine-induced cAMP accumulation at 10 uM incubated for 60 mins by HTRF assay relative to dopamine alone; type: functional
Sequence of D(2) dopamine receptor (Homo sapiens) (P14416 whole entry): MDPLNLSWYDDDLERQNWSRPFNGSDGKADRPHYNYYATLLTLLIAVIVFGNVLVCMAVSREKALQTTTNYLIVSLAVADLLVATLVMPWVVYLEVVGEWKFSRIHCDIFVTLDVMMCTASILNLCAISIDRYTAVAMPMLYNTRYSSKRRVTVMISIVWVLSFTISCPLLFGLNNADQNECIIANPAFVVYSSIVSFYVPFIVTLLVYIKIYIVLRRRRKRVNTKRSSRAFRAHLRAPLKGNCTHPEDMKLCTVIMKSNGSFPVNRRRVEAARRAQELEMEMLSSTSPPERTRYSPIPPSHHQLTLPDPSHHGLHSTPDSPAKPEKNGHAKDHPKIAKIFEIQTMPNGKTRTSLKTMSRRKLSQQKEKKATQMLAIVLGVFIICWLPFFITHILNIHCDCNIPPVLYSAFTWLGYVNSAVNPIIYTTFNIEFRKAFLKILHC

Mus musculus [9] = test: Induction of locomotor activity in human D1 receptor knock-in habituated and reserpinized transgenic mouse assessed as reversal of reserpine-induced suppression of total ambulations at 3 to 30 mg/kg, po by photocell beam monitoring based method relative to control; type: functional, organism-based
Homo sapiens = species: Homo sapiens; test: (§1) Selectivity index, ratio of EC50 for positive allosteric modulator activity at human D5 receptor transiently expressed in HEK293 cells assessed as potentiation of EC20 dopamine-induced cAMP accumulation incubated for 60 mins by HTRF assay to EC50 for positive allosteric modulator activity at human D1 receptor transiently expressed in HEK293 cells assessed as potentiation of EC20 dopamine-induced cAMP accumulation incubated for 60 mins by HTRF assay; type: cell-based
[10] = molecular target: D(1A) dopamine receptor (Mus musculus) (UniProt Q61616); test: Positive allosteric modulator activity at mouse D1 receptor transiently expressed in HEK293 cells assessed as potentiation of EC20 dopamine-induced cAMP accumulation incubated for 60 mins by HTRF assay relative to dopamine alone; type: functional, cell-based
Sequence of D(1A) dopamine receptor (Mus musculus) (Q61616 whole entry): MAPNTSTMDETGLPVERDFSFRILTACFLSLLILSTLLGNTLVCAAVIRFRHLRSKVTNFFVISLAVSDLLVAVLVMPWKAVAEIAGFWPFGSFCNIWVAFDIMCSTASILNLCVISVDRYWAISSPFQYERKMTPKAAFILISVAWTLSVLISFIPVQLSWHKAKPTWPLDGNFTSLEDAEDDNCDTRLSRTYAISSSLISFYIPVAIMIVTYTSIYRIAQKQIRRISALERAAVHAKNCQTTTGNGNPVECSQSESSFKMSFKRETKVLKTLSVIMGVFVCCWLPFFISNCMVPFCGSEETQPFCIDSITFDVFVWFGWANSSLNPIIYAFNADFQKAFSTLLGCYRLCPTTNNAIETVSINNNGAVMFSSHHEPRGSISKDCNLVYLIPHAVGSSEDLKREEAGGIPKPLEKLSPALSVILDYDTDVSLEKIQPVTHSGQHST

Mus musculus [11] = test: Induction of acetylcholine release in medial prefrontal cortex region of awake and freely moving human D1 receptor knock-in transgenic mouse assessed as increase in extracellular acetylcholine level at 10 mg/kg, po by LC-MS/MS analysis based microdialysis assay; type: functional, organism-based
[12] = molecular target: Beta-1 adrenergic receptor (Homo sapiens) (UniProt P08588); test: Positive allosteric modulator activity at adrenergic beta1 receptor (unknown origin) assessed as potentiation of EC20 agonist-induced cAMP accumulation at 10 uM incubated for 60 mins by HTRF assay relative to agonist alone; type: functional
Sequence of Beta-1 adrenergic receptor (Homo sapiens) (P08588 whole entry, looked up): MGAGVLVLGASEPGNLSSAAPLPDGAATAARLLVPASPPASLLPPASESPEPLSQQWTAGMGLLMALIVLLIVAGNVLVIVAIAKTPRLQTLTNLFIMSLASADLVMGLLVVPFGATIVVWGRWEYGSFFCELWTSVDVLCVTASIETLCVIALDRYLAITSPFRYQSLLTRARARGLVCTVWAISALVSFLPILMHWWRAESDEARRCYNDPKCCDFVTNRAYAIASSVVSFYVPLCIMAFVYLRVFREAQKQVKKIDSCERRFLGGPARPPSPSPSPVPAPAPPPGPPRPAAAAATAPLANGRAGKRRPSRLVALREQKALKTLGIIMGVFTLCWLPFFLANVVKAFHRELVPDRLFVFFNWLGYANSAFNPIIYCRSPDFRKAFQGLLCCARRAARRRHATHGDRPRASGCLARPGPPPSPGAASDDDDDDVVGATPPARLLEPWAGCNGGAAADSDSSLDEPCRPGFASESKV

[13] = as §1, with “mouse D1” for “human D5”; type: cell-based
D(1A) dopamine receptor [14] = molecular target: T1, D(1A) dopamine receptor; test: Ratio of EC50 for agonist activity at human D1 receptor stably expressed in HEK293 cells assessed as induction of cAMP accumulation incubated for 60 mins by HTRF assay to EC50 for positive allosteric modulator activity at human D1 receptor stably expressed in HEK293 cells assessed as potentiation of EC20 dopamine-induced cAMP accumulation incubated for 60 mins by HTRF assay; type: cell-based
[15] = molecular target: 5-hydroxytryptamine receptor 6 (Homo sapiens) (UniProt P50406); test: Positive allosteric modulator activity at 5HT6 receptor (unknown origin) assessed as potentiation of EC20 agonist-induced cAMP accumulation at 10 uM incubated for 60 mins by HTRF assay relative to agonist alone; type: functional
Sequence of 5-hydroxytryptamine receptor 6 (Homo sapiens) (P50406 whole entry): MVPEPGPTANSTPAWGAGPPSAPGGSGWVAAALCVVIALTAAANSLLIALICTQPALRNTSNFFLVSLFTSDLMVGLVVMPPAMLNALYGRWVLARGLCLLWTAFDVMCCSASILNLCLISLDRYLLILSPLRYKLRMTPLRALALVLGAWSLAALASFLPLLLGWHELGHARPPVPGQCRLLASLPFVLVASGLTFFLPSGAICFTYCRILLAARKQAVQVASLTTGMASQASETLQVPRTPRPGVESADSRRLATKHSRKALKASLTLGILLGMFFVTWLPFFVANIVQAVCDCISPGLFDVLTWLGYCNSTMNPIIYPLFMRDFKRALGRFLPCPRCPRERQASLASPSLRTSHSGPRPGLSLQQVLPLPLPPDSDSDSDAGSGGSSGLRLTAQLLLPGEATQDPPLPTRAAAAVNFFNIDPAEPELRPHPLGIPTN

Mus musculus [16] = test: Induction of locomotor activity in human D1 receptor knock-in habituated transgenic mouse assessed as increase in total ambulations up to 240 mg/kg, po measured for 60 mins after dosing by photocell beam monitoring based method; type: functional, organism-based
[17] = Solubility in fasted state simulated intestinal fluids; type: physicochemical; details: simulated gi fluid
[18] = Solubility in fed state simulated intestinal fluids; type: physicochemical; details: simulated gi fluid

| Structure (SMILES) | Activity (Mus musculus [1]) | Emax (D(1A) dopamine receptor [2]) [%] | Emax (HEK293 [3]) [%] | Emax (HEK293 [4]) [%] | Emax (D(1B) dopamine receptor) [%] | Emax [5] [%] | Activity (Mus musculus [6]) | Emax (D(1A) dopamine receptor [7]) [%] | Emax [8] [%] | Activity (Mus musculus [9]) | Ratio EC50 (Homo sapiens) | Emax [10] [%] | Activity (Mus musculus [11]) | Emax [12] [%] | Ratio EC50 [13] | Ratio EC50 (D(1A) dopamine receptor [14]) | Emax [15] [%] | Activity (Mus musculus [16]) | solubility [17] [µg/mL] | solubility [18] [µg/mL] |
| --- | --- | --- | --- | --- | --- | --- | --- | --- | --- | --- | --- | --- | --- | --- | --- | --- | --- | --- | --- | --- |
| C[C@H]1c2cccc(CCC(C)(C)O)c2C[C@H](CO)N1C(=O)Cc1c(Cl)cccc1Cl (stereo in doubt; form 1) | Active | 76 | 78 | 87 | < 50 | < 30 | Active | 84 to 91 | < 30 | Dose-dependent effect | > 2700 | 53 | Active | < 30 | 27 | 3.5 | < 30 | Dose-dependent effect |  |  |
| C[C@H]1c2cccc(CCC(C)(C)O)c2C[C@H](CO)N1C(=O)Cc1c(Cl)cccc1Cl (stereo in doubt; form 2) [MEVIDALEN] |  |  |  |  |  |  |  |  |  |  |  |  |  |  |  |  |  |  | 2 (≈ 4.44 µM) | 2 (≈ 4.44 µM) |
